Patent US20150296790A1, “SILICON-CONTAINING COMPOUND AQUEOUS SOLUTION AND ANTIBACTERIAL/ANTIVIRAL AGENT INCLUDING SAID SOLUTION” (JEX CO., LTD., priority 2012, published 2015)

Test: Stability over time (three-month storage tests, visual)
Format: physicochemical
Settings: purified water

## CCCCCCCCCCCCCCCCCC[N+](C)(C)CCC[Si](OCC)(OCC)OCC.[Cl-] [Compound E, Octadecyl dimethyl(3-triethoxysilylpropyl)ammonium chloride]
α-CD 1 w/w %, Compound E 0.7 w/w %
  Change Over 3 Months (Accelerated Test at 40° C., Cold Test at 5° C., Ambient Test at 25° C.): Stable
α-CD 1 w/w %, Compound E 0.8 w/w %
  Change Over 3 Months (Accelerated Test at 40° C., Cold Test at 5° C., Ambient Test at 25° C.): Clear but some precipitation was observed
α-CD 1 w/w %, Compound E 0.9 w/w %
  Change Over 3 Months (Accelerated Test at 40° C., Cold Test at 5° C., Ambient Test at 25° C.): Clear but some precipitation was observed
α-CD 1 w/w %, Compound E 1 w/w %
  Change Over 3 Months (Accelerated Test at 40° C., Cold Test at 5° C., Ambient Test at 25° C.): Clear but some precipitation was observed
α-CD 7 w/w %, Compound E 0.1 w/w %
  Change Over 3 Months (Accelerated Test at 40° C., Cold Test at 5° C., Ambient Test at 25° C.): Stable
α-CD 7 w/w %, Compound E 0.2 w/w %
  Change Over 3 Months (Accelerated Test at 40° C., Cold Test at 5° C., Ambient Test at 25° C.): Stable
α-CD 7 w/w %, Compound E 0.3 w/w %
  Change Over 3 Months (Accelerated Test at 40° C., Cold Test at 5° C., Ambient Test at 25° C.): Stable
α-CD 7 w/w %, Compound E 0.4 w/w %
  Change Over 3 Months (Accelerated Test at 40° C., Cold Test at 5° C., Ambient Test at 25° C.): Stable
α-CD 7 w/w %, Compound E 0.5 w/w %
  Change Over 3 Months (Accelerated Test at 40° C., Cold Test at 5° C., Ambient Test at 25° C.): Stable
α-CD 7 w/w %, Compound E 0.6 w/w %
  Change Over 3 Months (Accelerated Test at 40° C., Cold Test at 5° C., Ambient Test at 25° C.): Stable
α-CD 7 w/w %, Compound E 0.7 w/w %
  Change Over 3 Months (Accelerated Test at 40° C., Cold Test at 5° C., Ambient Test at 25° C.): Stable
α-CD 7 w/w %, Compound E 0.8 w/w %
  Change Over 3 Months (Accelerated Test at 40° C., Cold Test at 5° C., Ambient Test at 25° C.): Stable
α-CD 7 w/w %, Compound E 0.9 w/w %
  Change Over 3 Months (Accelerated Test at 40° C., Cold Test at 5° C., Ambient Test at 25° C.): Stable
α-CD 7 w/w %, Compound E 1 w/w %
  Change Over 3 Months (Accelerated Test at 40° C., Cold Test at 5° C., Ambient Test at 25° C.): Stable
β-CD 1 w/w %, Compound E 0.1 w/w %
  Change Over 3 Months (Accelerated Test at 40° C., Cold Test at 5° C., Ambient Test at 25° C.): Not changed
β-CD 1 w/w %, Compound E 0.2 w/w %
  Change Over 3 Months (Accelerated Test at 40° C., Cold Test at 5° C., Ambient Test at 25° C.): Not changed
β-CD 1 w/w %, Compound E 0.3 w/w %
  Change Over 3 Months (Accelerated Test at 40° C., Cold Test at 5° C., Ambient Test at 25° C.): Not changed
β-CD 1 w/w %, Compound E 0.4 w/w %
  Change Over 3 Months (Accelerated Test at 40° C., Cold Test at 5° C., Ambient Test at 25° C.): Not changed
β-CD 1 w/w %, Compound E 0.5 w/w %
  Change Over 3 Months (Accelerated Test at 40° C., Cold Test at 5° C., Ambient Test at 25° C.): Not changed
β-CD 1 w/w %, Compound E 0.6 w/w %
  Change Over 3 Months (Accelerated Test at 40° C., Cold Test at 5° C., Ambient Test at 25° C.): Not changed
β-CD 1 w/w %, Compound E 0.7 w/w %
  Change Over 3 Months (Accelerated Test at 40° C., Cold Test at 5° C., Ambient Test at 25° C.): Not changed
β-CD 1 w/w %, Compound E 0.8 w/w %
  Change Over 3 Months (Accelerated Test at 40° C., Cold Test at 5° C., Ambient Test at 25° C.): Not changed
β-CD 1 w/w %, Compound E 0.9 w/w %
  Change Over 3 Months (Accelerated Test at 40° C., Cold Test at 5° C., Ambient Test at 25° C.): Not changed
β-CD 1 w/w %, Compound E 1 w/w %
  Change Over 3 Months (Accelerated Test at 40° C., Cold Test at 5° C., Ambient Test at 25° C.): Not changed
γ-CD 10 w/w %, Compound E 0.1 w/w %
  Change Over 3 Months (Accelerated Test at 40° C., Cold Test at 5° C., Ambient Test at 25° C.): Precipitated
γ-CD 10 w/w %, Compound E 0.2 w/w %
  Change Over 3 Months (Accelerated Test at 40° C., Cold Test at 5° C., Ambient Test at 25° C.): Precipitated
γ-CD 10 w/w %, Compound E 0.3 w/w %
  Change Over 3 Months (Accelerated Test at 40° C., Cold Test at 5° C., Ambient Test at 25° C.): Precipitated
γ-CD 10 w/w %, Compound E 0.4 w/w %
  Change Over 3 Months (Accelerated Test at 40° C., Cold Test at 5° C., Ambient Test at 25° C.): Precipitated
γ-CD 10 w/w %, Compound E 0.5 w/w %
  Change Over 3 Months (Accelerated Test at 40° C., Cold Test at 5° C., Ambient Test at 25° C.): Precipitated
γ-CD 10 w/w %, Compound E 0.6 w/w %
  Change Over 3 Months (Accelerated Test at 40° C., Cold Test at 5° C., Ambient Test at 25° C.): Precipitated
γ-CD 10 w/w %, Compound E 0.7 w/w %
  Change Over 3 Months (Accelerated Test at 40° C., Cold Test at 5° C., Ambient Test at 25° C.): Precipitated
γ-CD 10 w/w %, Compound E 0.8 w/w %
  Change Over 3 Months (Accelerated Test at 40° C., Cold Test at 5° C., Ambient Test at 25° C.): Precipitated
γ-CD 10 w/w %, Compound E 0.9 w/w %
  Change Over 3 Months (Accelerated Test at 40° C., Cold Test at 5° C., Ambient Test at 25° C.): Precipitated
γ-CD 10 w/w %, Compound E 1 w/w %
  Change Over 3 Months (Accelerated Test at 40° C., Cold Test at 5° C., Ambient Test at 25° C.): Precipitated
